Experimental data published in ChEMBL document CHEMBL1143484, “Discovery of 1-amino-4-phenylcyclohexane-1-carboxylic acid and its influence on agonist selectivity between human melanocortin-4 and -1 receptors in linear pentapeptides” (Bioorg Med Chem Lett, 2005).
Non-standard residues stand in square brackets, D forms with d. Residues, ends and D or L forms follow the SMILES beside them. *: point of attachment. Butyryl = CCCC(=O)*

What was measured:
[1] = molecular target: T1, Melanocyte-stimulating hormone receptor (Homo sapiens, UniProt Q01726); experiment: Effective concentration required for cAMP accumulation mediated by human Melanocortin 1 receptor in HEK293 cells; assay type: functional, cell-based
Target sequence in this assay (Q01726 whole entry): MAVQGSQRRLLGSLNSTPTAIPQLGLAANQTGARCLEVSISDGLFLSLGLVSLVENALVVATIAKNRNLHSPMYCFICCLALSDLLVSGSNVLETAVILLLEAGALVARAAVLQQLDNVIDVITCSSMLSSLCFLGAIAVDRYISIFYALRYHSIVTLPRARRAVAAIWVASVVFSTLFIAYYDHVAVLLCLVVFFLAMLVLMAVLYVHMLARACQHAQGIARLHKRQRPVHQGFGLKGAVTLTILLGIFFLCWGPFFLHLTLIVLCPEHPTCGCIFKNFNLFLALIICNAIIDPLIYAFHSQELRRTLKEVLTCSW

Melanocortin receptor 4 [2] = molecular target: T2, Melanocortin receptor 4 (Homo sapiens, UniProt P32245); experiment: Effective concentration for cAMP accumulation mediated by human Melanocortin 4 receptor in HEK293 cells; assay type: functional, cell-based
[3] = molecular target: Melanocortin receptor 3 (Homo sapiens) (UniProt P41968); experiment: Concentration (50 uM) required for cAMP accumulation mediated by human Melanocortin 3 receptor in HEK293 cells; assay type: functional, cell-based
[4] = molecular target: Melanocortin receptor 5 (Homo sapiens) (UniProt P33032); experiment: Concentration (50 uM) required for cAMP accumulation mediated by human Melanocortin 5 receptor in HEK293 cells; assay type: functional, cell-based
[5] = molecular target: T1, Melanocyte-stimulating hormone receptor; experiment: Concentration (50 uM) required for cAMP accumulation mediated by human Melanocortin 1 receptor in HEK293 cells; assay type: functional, cell-based
Target sequence in this assay (Q01726 whole entry, looked up): as the sequence (Q01726 whole entry) above

Melanocortin receptor 4 [6] = molecular target: T2, Melanocortin receptor 4; experiment: Binding affinity towards human Melanocortin 4 receptor using radiolabeled NDP-MSH displacement
[7] = molecular target: T1, Melanocyte-stimulating hormone receptor; experiment: Binding affinity towards human Melanocortin 1 receptor using radiolabeled NDP-MSH displacement
Target sequence in this assay (Q01726 whole entry): as above

Melanocortin receptor 4 [8] = molecular target: T2, Melanocortin receptor 4; experiment: Concentration (50 uM) required for cAMP accumulation mediated by human Melanocortin 4 receptor in HEK293 cells; assay type: functional, cell-based

Melanocortin receptor 5 (Homo sapiens), sequence (P33032 whole entry): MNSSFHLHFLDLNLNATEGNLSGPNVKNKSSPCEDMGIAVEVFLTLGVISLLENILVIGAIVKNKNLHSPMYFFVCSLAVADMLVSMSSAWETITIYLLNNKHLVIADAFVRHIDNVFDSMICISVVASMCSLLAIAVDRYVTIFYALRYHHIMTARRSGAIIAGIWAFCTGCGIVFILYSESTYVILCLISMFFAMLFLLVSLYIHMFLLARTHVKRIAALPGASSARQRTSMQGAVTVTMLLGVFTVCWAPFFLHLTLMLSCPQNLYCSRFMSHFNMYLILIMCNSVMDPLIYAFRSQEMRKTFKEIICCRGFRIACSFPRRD
Melanocortin receptor 3 (Homo sapiens), sequence (P41968 whole entry): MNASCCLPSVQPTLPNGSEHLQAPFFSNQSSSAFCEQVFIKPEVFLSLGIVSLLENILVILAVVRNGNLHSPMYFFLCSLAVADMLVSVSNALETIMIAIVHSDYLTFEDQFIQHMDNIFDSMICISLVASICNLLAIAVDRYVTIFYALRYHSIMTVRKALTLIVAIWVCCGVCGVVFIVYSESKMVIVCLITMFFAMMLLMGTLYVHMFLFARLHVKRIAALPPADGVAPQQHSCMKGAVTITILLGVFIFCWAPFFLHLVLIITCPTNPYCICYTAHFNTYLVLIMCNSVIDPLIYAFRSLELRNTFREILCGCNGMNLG
T2 sequence (P32245 whole entry): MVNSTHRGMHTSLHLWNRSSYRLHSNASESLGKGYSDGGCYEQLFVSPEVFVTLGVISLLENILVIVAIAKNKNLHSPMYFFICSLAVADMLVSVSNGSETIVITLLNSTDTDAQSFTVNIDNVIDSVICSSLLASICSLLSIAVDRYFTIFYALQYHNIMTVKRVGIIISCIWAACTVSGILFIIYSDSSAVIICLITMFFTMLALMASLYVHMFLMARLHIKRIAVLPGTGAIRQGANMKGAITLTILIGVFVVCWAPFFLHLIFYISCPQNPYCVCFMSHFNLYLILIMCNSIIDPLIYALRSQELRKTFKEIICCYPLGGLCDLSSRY

| SMILES | EC50 [1] [nM] | EC50 (Melanocortin receptor 4 [2]) [nM] | cAMP accumulation at 50 uM [5] [%] | further results |
| --- | --- | --- | --- | --- |
| CCCCC(=O)N[C@]1(C(=O)NC(Cc2ccccc2)C(=O)NC(CCCN=C(N)N)C(=O)N[C@@H](Cc2c[nH]c3ccccc23)C(=O)NCC(N)=O)CC[C@@H](c2ccccc2)CC1 (single isomer, unassigned) | 1300 | 88 | – | – |
| CCCCC(=O)N[C@]1(C(=O)N[C@H](Cc2ccccc2)C(=O)N[C@@H](CCCN=C(N)N)C(=O)N[C@@H](Cc2c[nH]c3ccccc23)C(=O)NCC(N)=O)CC[C@H](c2ccccc2)CC1 | – | – | 25 | Accumulation [3]: 57%; Accumulation [4]: 36% |
| CCCCC(=O)N[C@]1(C(=O)N[C@H](Cc2ccccc2)C(=O)N[C@@H](CCCNC(=N)N)C(=O)N[C@@H](Cc2c[nH]c3ccccc23)C(N)=O)CC[C@H](c2ccccc2)CC1 | 1300 | 130 | – | – |
| CCCCC(=O)N[C@]1(C(=O)N[C@H](Cc2ccccc2)C(=O)N[C@@H](CCCNC(=N)N)C(=O)N[C@@H](Cc2c[nH]c3ccccc23)C(=O)NCC(N)=O)CC[C@H](c2cccc(OC)c2)CC1 | 690 | 2 | – | – |
| CCCCC(=O)N[C@]1(C(=O)N[C@H](Cc2ccccc2)C(=O)N[C@@H](CCCN=C(N)N)C(=O)N[C@@H](Cc2c[nH]c3ccccc23)C(=O)NCC(N)=O)CC[C@H](c2ccc(OC(C)C)cc2)CC1 | – | – | 60 | – |
| CCCCC(=O)N[C@]1(C(=O)N[C@H](Cc2ccccc2)C(=O)N[C@@H](CCCNC(=N)N)C(=O)N[C@@H](Cc2c[nH]c3ccccc23)C(=O)NCC(N)=O)CC[C@H](c2ccc(OCC)cc2)CC1 | – | 13 | – | IC50 (Melanocortin receptor 4 [6]): 43 nM; IC50 [7]: 4700 nM |
| CCCCC(=O)N[C@]1(C(=O)N[C@H](Cc2ccccc2)C(=O)N[C@@H](CCCNC(=N)N)C(=O)N[C@@H](Cc2c[nH]c3ccccc23)C(=O)NCC(N)=O)CC[C@H](c2ccc(Cl)cc2)CC1 | – | 4 | – | – |
| CCCCC(=O)N[C@]1(C(=O)N[C@H](Cc2ccccc2)C(=O)N[C@@H](CCCN=C(N)N)C(=O)N[C@@H](Cc2c[nH]c3ccccc23)C(=O)NCC(N)=O)CC[C@H](c2ccc(OCC)cc2)CC1 | – | – | 0 | Accumulation [3]: 28%; Accumulation [4]: 46% |
| CCCCC(=O)N[C@]1(C(=O)N[C@H](Cc2ccccc2)C(=O)N[C@@H](CCCNC(=N)N)C(=O)N[C@@H](Cc2c[nH]c3ccccc23)C(=O)NCC(N)=O)CC[C@H](c2ccccc2)CC1 | – | 2 | – | IC50 (Melanocortin receptor 4 [6]): 13 nM; IC50 [7]: 7100 nM |
| CCCCC(=O)N[C@]1(C(=O)NC(Cc2ccccc2)C(=O)NC(CCCN=C(N)N)C(=O)N[C@@H](Cc2c[nH]c3ccccc23)C(=O)NCC(N)=O)CC[C@H](c2ccc(OC)cc2)CC1 (single isomer, unassigned) | – | 9 | 0 | – |
| CCCC(=O)N[C@@H](Cc1c[nH]cn1)C(=O)N[C@H](Cc1ccccc1)C(=O)N[C@@H](CCCN=C(N)N)C(=O)N[C@@H](Cc1c[nH]c2ccccc12)C(=O)NCC(N)=O (Butyryl-H[dF]RWG-NH2) | – | – | – | Accumulation [3]: 0%; Accumulation [4]: 0% |
| NC(=O)CNC(=O)[C@H](Cc1c[nH]c2ccccc12)NC(=O)[C@H](CCCN=C(N)N)NC(=O)[C@@H](Cc1ccccc1)NC(=O)[C@H]1CC[C@H](c2ccccc2)CC1 | – | 550 | 60 | – |
| CCCCC(=O)N[C@]1(C(=O)N[C@H](Cc2ccccc2)C(=O)N[C@@H](CCCN=C(N)N)C(=O)N[C@@H](Cc2c[nH]c3ccccc23)C(=O)NCC(N)=O)CC[C@H](c2ccc(Cl)cc2)CC1 | – | – | 45 | – |
| CCCCC(=O)N[C@@]1(C(=O)N[C@H](Cc2ccccc2)C(=O)N[C@@H](CCCN=C(N)N)C(=O)N[C@@H](Cc2c[nH]c3ccccc23)C(=O)NCC(N)=O)CCc2ccccc2C1 | 830 | 45 | – | – |
| CCCCC(=O)N[C@]1(C(=O)N[C@H](Cc2ccccc2)C(=O)N[C@@H](CCCNC(=N)N)C(=O)N[C@@H](Cc2c[nH]c3ccccc23)C(=O)NCC(N)=O)CC[C@H](c2ccc(O)cc2)CC1 | 1300 | 5 | – | – |
| CCCCC(=O)N[C@]1(C(=O)NC(Cc2ccccc2)C(=O)NC(CCCN=C(N)N)C(=O)N[C@@H](Cc2c[nH]c3ccccc23)C(=O)NCC(N)=O)CC[C@H](c2ccc(C)cc2)CC1 (single isomer, unassigned) | – | 3 | 55 | – |
| CCCCC(=O)N[C@]1(C(=O)N[C@H](Cc2ccccc2)C(=O)N[C@@H](CCCN=C(N)N)C(=O)N[C@@H](Cc2c[nH]c3ccccc23)C(=O)NCC(N)=O)CC[C@H](c2cc(CCC)cc(CCC)c2)CC1 | 210 | – | – | Accumulation (Melanocortin receptor 4 [8]): 60% |
| CCCCC(=O)N[C@]1(C(=O)N[C@H](Cc2ccccc2)C(=O)N[C@@H](CCCNC(=N)N)C(=O)N[C@@H](Cc2c[nH]c3ccccc23)C(=O)NCC(N)=O)CC[C@H](c2ccc(OC(C)C)cc2)CC1 | – | 6 | – | – |
